The source of these data is patent US10670605B2, “Cysteine reactive probes and uses thereof” (The Scripps Research Institute, priority 2015, dated 2020).

What all share (assay): Competitive isoTOP-ABPP in situ (fragment-treated cells)
Holding throughout (type): cell-based

The target in assay [1] is cysteines in MDA-MB-231 and Ramos cells (Homo sapiens, UniProt O60825). The conditions noted are these: 200 μM, insitu.
The target in assay [2] is cysteines in MDA-MB-231 and Ramos cells (Homo sapiens, UniProt P07858).
Assay [3] deals with T1, cysteines in MDA-MB-231 and Ramos cells (Homo sapiens, UniProt P24468).
T1 sequence (P24468 1-414): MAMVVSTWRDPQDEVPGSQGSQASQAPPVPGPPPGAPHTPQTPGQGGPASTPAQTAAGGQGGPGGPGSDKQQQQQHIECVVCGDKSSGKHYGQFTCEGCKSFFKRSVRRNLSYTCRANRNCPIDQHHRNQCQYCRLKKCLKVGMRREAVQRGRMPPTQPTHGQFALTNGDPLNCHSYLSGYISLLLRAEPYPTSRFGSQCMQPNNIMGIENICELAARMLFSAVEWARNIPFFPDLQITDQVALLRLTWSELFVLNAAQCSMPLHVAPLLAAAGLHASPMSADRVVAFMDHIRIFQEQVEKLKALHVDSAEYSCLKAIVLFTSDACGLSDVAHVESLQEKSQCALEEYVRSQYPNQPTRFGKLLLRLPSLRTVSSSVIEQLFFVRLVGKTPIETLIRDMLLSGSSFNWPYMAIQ

The target of assay [4] is cysteines in MDA-MB-231 and Ramos cells (Homo sapiens, UniProt P35658).
Sequence of cysteines in MDA-MB-231 and Ramos cells (Homo sapiens, UniProt P35658) (P35658 whole entry): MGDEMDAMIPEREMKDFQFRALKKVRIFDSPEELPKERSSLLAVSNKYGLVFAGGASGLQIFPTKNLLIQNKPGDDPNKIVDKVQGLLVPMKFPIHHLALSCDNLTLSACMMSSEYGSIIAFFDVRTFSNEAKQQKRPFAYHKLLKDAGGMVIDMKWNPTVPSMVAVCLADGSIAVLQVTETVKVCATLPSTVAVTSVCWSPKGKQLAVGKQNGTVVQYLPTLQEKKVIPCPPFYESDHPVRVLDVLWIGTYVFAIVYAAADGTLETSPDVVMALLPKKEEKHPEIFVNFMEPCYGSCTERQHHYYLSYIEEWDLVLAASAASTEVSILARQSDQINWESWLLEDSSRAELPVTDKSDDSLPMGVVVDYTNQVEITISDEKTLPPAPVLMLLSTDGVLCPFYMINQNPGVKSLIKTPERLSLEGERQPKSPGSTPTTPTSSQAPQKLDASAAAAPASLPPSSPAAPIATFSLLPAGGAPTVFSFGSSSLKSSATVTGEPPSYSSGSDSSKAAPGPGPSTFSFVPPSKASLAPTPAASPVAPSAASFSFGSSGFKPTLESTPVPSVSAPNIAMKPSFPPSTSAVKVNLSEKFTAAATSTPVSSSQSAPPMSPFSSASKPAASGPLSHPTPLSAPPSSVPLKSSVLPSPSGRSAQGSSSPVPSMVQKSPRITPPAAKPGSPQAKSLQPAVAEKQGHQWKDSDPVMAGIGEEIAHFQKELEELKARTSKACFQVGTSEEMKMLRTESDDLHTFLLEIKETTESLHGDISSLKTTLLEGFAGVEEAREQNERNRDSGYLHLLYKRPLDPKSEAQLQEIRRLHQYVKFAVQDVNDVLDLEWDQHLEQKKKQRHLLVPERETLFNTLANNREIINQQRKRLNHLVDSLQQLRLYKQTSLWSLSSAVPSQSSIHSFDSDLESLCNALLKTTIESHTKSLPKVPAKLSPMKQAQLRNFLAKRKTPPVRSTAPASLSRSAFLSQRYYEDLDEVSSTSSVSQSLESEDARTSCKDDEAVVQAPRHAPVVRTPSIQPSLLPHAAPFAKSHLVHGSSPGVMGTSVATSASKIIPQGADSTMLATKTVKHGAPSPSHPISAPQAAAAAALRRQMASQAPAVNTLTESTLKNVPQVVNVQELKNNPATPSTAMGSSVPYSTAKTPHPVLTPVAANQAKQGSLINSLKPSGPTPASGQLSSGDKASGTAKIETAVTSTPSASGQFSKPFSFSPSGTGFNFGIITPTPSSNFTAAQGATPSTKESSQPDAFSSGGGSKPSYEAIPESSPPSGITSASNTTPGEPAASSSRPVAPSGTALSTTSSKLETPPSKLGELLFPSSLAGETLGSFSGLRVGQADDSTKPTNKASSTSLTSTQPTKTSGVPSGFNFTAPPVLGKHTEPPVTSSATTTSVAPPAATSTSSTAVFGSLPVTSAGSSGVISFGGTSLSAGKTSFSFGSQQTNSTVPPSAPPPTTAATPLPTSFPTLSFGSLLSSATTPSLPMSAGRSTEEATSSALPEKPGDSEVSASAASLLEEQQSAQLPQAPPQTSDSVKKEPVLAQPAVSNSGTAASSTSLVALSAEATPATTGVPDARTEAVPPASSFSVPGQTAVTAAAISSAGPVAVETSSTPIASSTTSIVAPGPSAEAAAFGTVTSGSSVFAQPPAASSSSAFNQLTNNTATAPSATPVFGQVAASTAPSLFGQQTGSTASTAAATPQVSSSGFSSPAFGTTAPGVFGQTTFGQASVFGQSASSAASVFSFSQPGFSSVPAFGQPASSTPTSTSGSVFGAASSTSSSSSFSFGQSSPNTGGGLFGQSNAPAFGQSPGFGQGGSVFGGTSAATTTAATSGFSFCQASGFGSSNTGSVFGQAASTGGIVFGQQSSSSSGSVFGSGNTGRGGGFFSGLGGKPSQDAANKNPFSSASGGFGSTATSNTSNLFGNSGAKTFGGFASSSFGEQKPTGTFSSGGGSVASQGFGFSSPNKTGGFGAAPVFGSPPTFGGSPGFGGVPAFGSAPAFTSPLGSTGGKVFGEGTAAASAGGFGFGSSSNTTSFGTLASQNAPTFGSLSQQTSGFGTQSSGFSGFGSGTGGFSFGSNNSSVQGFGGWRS
The target in assay [5] is T2, cysteines in MDA-MB-231 and Ramos cells (Homo sapiens, UniProt Q8NFH5).
T2 sequence (Q8NFH5 1-326): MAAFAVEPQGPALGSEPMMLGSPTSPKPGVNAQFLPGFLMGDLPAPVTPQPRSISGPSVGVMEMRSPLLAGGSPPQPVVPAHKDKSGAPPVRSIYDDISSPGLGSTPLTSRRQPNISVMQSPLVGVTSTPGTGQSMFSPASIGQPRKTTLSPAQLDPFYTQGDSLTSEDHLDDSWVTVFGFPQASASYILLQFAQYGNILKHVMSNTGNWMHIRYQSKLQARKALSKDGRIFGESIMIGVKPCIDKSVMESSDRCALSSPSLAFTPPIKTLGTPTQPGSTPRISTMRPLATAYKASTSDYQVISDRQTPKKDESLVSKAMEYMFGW

Assay [6] addresses cysteines in MDA-MB-231 and Ramos cells (Homo sapiens, UniProt Q96NY7).
The target of assay [7] is cysteines in MDA-MB-231 and Ramos cells (Homo sapiens, UniProt P04818). As to conditions: 200 μM, insitu, 231.
Sequence of cysteines in MDA-MB-231 and Ramos cells (Homo sapiens, UniProt P04818) (P04818 whole entry): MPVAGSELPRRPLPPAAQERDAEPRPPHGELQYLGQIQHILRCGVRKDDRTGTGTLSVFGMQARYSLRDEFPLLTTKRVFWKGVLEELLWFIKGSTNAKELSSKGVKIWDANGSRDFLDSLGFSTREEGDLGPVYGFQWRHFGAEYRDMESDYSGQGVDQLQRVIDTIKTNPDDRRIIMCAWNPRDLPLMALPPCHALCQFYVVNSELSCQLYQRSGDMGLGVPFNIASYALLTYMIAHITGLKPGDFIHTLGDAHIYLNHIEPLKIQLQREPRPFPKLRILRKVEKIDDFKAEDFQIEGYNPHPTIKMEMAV
Assay [8] has as its target T3, cysteines in MDA-MB-231 and Ramos cells (Homo sapiens, UniProt Q15398).
T3 sequence (Q15398 1-846): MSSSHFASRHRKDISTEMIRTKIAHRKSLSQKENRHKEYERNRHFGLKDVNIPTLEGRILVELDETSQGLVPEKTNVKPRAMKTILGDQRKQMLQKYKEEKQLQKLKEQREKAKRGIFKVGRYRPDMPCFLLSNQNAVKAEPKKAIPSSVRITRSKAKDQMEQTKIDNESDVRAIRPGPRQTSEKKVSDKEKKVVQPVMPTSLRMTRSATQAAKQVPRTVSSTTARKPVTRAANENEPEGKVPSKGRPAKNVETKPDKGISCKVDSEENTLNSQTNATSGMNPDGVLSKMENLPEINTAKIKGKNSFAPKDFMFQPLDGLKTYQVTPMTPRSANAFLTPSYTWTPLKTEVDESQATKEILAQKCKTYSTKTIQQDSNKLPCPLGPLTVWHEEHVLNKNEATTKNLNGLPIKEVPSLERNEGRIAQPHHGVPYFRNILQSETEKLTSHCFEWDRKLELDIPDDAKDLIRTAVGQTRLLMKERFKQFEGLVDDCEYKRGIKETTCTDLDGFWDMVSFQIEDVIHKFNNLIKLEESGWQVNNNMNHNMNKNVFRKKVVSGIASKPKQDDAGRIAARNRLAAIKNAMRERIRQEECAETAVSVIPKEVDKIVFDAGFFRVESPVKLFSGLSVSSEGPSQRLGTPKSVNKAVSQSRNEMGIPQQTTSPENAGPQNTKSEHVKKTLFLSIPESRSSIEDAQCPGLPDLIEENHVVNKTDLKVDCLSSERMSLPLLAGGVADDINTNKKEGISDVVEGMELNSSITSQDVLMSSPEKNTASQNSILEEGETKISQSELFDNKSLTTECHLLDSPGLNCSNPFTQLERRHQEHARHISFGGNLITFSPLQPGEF

Assay [9] has as its target cysteines in MDA-MB-231 and Ramos cells (Homo sapiens, UniProt P48643).
Assay [10] has as its target T4, cysteines in MDA-MB-231 and Ramos cells (Homo sapiens, UniProt Q8N1F7).
T4 sequence (Q8N1F7 1-819): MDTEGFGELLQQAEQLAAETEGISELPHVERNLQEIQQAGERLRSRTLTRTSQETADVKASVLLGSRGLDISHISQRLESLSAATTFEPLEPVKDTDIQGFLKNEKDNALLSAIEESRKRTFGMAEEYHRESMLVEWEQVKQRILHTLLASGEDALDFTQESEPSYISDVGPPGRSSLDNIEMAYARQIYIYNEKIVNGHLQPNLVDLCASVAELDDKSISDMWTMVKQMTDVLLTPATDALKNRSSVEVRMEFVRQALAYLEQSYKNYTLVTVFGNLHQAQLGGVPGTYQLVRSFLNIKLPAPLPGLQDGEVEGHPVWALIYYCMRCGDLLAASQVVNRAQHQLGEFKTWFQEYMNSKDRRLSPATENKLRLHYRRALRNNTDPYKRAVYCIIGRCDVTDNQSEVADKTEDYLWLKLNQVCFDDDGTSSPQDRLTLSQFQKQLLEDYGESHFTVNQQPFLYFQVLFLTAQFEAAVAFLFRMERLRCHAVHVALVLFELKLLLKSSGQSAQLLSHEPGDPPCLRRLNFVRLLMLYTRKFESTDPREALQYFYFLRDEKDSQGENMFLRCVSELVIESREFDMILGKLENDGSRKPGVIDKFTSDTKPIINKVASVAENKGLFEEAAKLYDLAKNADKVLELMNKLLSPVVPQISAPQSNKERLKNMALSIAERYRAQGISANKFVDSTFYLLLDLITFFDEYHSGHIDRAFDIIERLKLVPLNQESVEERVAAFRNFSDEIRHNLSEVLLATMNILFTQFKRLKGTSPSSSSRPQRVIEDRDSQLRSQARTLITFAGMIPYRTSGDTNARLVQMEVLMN
As to conditions: 200 μM, insitu.

Sequence of cysteines in MDA-MB-231 and Ramos cells (Homo sapiens, UniProt P48643) (P48643 whole entry): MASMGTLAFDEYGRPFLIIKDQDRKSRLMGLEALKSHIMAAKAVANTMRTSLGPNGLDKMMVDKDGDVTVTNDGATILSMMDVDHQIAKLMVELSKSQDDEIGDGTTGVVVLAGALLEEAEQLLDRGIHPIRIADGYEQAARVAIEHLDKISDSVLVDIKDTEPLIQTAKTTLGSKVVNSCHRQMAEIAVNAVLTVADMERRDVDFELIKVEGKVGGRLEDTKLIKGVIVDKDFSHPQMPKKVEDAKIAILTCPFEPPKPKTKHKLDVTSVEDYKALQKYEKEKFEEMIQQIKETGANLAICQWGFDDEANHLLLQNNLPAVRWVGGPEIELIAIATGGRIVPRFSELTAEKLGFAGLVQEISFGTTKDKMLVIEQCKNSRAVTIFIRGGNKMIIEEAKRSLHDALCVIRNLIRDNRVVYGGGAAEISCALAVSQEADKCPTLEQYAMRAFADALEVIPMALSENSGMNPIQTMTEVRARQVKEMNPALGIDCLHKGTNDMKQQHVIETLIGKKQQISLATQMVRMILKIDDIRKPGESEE
Sequence of cysteines in MDA-MB-231 and Ramos cells (Homo sapiens, UniProt Q96NY7) (Q96NY7 whole entry): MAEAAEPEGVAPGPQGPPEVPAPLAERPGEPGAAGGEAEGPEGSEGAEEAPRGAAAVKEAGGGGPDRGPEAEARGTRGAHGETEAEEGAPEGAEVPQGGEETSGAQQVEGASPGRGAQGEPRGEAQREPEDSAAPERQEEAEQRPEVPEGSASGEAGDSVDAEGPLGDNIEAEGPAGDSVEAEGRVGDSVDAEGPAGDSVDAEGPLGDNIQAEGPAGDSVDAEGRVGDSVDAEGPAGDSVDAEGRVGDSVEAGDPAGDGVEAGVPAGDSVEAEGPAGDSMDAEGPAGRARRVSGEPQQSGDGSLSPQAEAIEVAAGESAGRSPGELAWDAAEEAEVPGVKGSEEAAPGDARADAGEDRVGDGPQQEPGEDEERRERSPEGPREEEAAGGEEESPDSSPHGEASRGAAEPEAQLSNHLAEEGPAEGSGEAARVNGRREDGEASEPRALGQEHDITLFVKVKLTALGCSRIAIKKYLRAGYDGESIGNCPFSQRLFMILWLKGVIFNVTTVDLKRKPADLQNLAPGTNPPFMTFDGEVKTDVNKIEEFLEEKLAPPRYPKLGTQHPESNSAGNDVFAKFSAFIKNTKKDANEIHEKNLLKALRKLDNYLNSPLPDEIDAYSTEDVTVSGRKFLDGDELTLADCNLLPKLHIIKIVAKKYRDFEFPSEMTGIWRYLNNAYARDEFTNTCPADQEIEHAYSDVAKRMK
Sequence of cysteines in MDA-MB-231 and Ramos cells (Homo sapiens, UniProt O60825) (O60825 whole entry): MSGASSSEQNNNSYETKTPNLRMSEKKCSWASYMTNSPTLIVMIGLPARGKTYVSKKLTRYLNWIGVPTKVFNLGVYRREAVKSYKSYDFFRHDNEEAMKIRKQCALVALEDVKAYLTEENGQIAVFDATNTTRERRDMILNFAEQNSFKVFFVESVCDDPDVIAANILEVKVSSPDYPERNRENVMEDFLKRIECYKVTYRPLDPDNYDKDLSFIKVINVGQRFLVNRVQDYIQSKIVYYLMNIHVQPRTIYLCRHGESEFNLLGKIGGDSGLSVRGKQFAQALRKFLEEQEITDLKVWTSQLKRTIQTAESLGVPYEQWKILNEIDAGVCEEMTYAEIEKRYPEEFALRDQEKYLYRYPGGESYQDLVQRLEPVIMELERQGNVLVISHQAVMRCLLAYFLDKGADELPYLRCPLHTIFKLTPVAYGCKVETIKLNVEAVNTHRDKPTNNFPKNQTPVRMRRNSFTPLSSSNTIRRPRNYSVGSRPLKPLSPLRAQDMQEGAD

For the molecule `O=C(CCl)NC12CC3CC(CC(C3)C1)C2` [compound 21], the “isoTOP-ABPP ratio O60825_C158” value in assay [1] (231) was found to be 1.4. Also, in [2] (200 μM, insitu, 231), the “isoTOP-ABPP ratio P07858_C211” value is on record as 2.6. Also, the “isoTOP-ABPP ratio, cysteine P24468_C326” value in assay [3] (200 μM, insitu, 231) was 1.1. Moreover, the “isoTOP-ABPP ratio P35658_C728” value in assay [4] (200 μM, insitu, 231) worked out at 1.3. Besides, in assay [5] (200 μM, insitu, 231), the “isoTOP-ABPP ratio Q8NFH5_C255” value was determined as 1.8. Also, the “isoTOP-ABPP ratio Q96NY7_C487” value in assay [6] (200 μM, insitu, 231) is 1.2.

For the molecule `COc1ccc2c(c1)CCCN2C(=O)CCl` [compound 2], the “isoTOP-ABPP reactivity O60825_C158 PFKFB2” value in assay [1] (231) is 0.7. Moreover, in assay [7], the “isoTOP-ABPP reactivity P04818_C199 TYMS” value is 20.0. Further, the “isoTOP-ABPP reactivity P24468_C326 NR2F2” value in [3] (200 μM, insitu, 231) is reported as 20.0. Besides, the “isoTOP-ABPP reactivity P35658_C728 NUP214” value in assay [4] (200 μM, insitu, 231) was 3.9. In addition, the “isoTOP-ABPP reactivity Q15398_C129 DLGAP5” value in assay [8] (200 μM, insitu, 231) came to 20.0. For the same molecule, the “isoTOP-ABPP reactivity Q8NFH5_C255 NUP35” value in [5] (200 μM, insitu, 231) came out at 5.1.

With `Cn1cc(S(=O)(=O)N2CCOCC2)cc1C(=O)NC(=O)CCl` [compound 11], in assay [2] (100 μM in situ 231), the “isoTOP-ABPP ratio P07858_C211” value turned out to be 1.1. Also, the “isoTOP-ABPP ratio, cysteine P24468_C326” value in assay [3] (100 μM in situ 231) came to 0.9. In addition, the “isoTOP-ABPP ratio P35658_C728” value in assay [4] (100 μM in situ 231) is given as 0.8. The “isoTOP-ABPP ratio P48643_C253” value in assay [9] (100 μM in situ 231) is recorded as 0.6. Also, in [8] (100 μM in situ 231), the “isoTOP-ABPP ratio, cysteine Q15398_C129” value is 0.6. In [5] (100 μM in situ 231), the “isoTOP-ABPP ratio Q8NFH5_C255” value came out at 1.3. In addition, the “isoTOP-ABPP ratio Q96NY7_C487” value in assay [6] (100 μM in situ 231) is 3.1.

As for `COc1ccccc1OCCNC(=O)CCl` [compound 28], the “isoTOP-ABPP ratio P48643_C253” value in assay [9] (200 μM, insitu, 231) was 0.8.

As to `O=C(CCl)NCCc1c[nH]c2ccccc12` [compound 13], the “isoTOP-ABPP ratio O60825_C158” value in [1] (ramos) amounted to 0.9. Further, the “isoTOP-ABPP ratio P07858_C211” value in assay [2] (200 μM, insitu, 231) was found to be 1.6. Also, the “isoTOP-ABPP ratio P35658_C728” value in [4] (200 μM, insitu, 231) was 1.0. Moreover, the “isoTOP-ABPP ratio Q8N1F7_C522” value in assay [10] (ramos) came to 2.2. Besides, the “isoTOP-ABPP ratio Q8NFH5_C255” value in assay [5] (200 μM, insitu, 231) came out at 1.5. Also, the “isoTOP-ABPP ratio Q96NY7_C487” value in assay [6] (200 μM, insitu, 231) was 1.9.

`Cc1ccc(C=C(C#N)C(=O)NCCN2CCOCC2)cc1` [compound 41]: in assay [1] (231), the “isoTOP-ABPP ratio O60825_C158” value is 0.7. In addition, in [7], the “isoTOP-ABPP ratio P04818_C199” value came out at 0.7. Besides, the “isoTOP-ABPP ratio P07858_C211” value in assay [2] (200 μM, insitu, 231) amounted to 0.4. Also, the “isoTOP-ABPP ratio P24468_C326” value in [3] (200 μM, insitu, 231) is given as 0.8. For the same molecule, in [4] (200 μM, insitu, 231), the “isoTOP-ABPP ratio P35658_C728” value is given as 1.1. The “isoTOP-ABPP ratio P48643_C253” value in [9] (200 μM, insitu, 231) was determined as 0.8. Besides, in assay [10] (231), the “isoTOP-ABPP ratio Q8N1F7_C522” value was found to be 0.8. For the same molecule, the “isoTOP-ABPP ratio Q8NFH5_C255” value in [5] (200 μM, insitu, 231) stood at 0.8. In addition, the “isoTOP-ABPP ratio Q96NY7_C487” value in assay [6] (200 μM, insitu, 231) was found to be 0.4.

Take `C=CC(=O)N(Cc1cccnc1)c1cc(C(F)(F)F)cc(C(F)(F)F)c1` [compound 31]: the “isoTOP-ABPP ratio O60825_C158” value in assay [1] (ramos) is recorded as 1,3. The “isoTOP-ABPP ratio P35658_C728” value in assay [4] (200 μM, insitu, 231) is listed as 0.7. For the same molecule, the “isoTOP-ABPP ratio P48643_C253” value was determined as 0.5 in assay [9] (200 μM, insitu, 231) and 1.0 in assay [9] (200 μM, insitu, ramos). Also, the “isoTOP-ABPP ratio Q15398_C129” value in assay [8] (200 μM, insitu, ramos) is reported as 2.4. For the same molecule, the “isoTOP-ABPP ratio Q8N1F7_C522” value in assay [10] (ramos) is 3.6. For the same molecule, in assay [6] (200 μM, insitu, 231), the “isoTOP-ABPP ratio Q96NY7_C487” value was 0.5.

Regarding `COc1cc2c(cc1OC)CN(C(=O)CCl)CC2` [compound 8], in [3] (200 μM, insitu, 231), the “isoTOP-ABPP reactivity P24468_C326 NR2F2” value stood at 20.0. Moreover, in assay [9] (200 μM, insitu, 231), the “isoTOP-ABPP reactivity P48643_C253 CCT5” value is 0.8. For the same molecule, the “isoTOP-ABPP reactivity Q8N1F7_0522 NUP93” value in assay [10] (231) was 20.0. Besides, in assay [6] (200 μM, insitu, 231), the “isoTOP-ABPP reactivity Q96NY7_C487 CLIC6” value was 5.1.
